Assay results published in PubChem BioAssay AID1963849 (Molecular Pharmacology Branch, DTP, NCI, 2024).

System: 299254-011-R-J1-PDC complex spheroid viability
Experiment: Anticancer human tumor 299254-011-R-J1-PDC patient-derived melanoma cell line growth inhibition [POLQ]
Settings: for IC50: curve of first compound; for viability, T/C: stronger effect = lower value
In short: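 Growth inhibition in 3D: complex spheroids (tumor PDC, HUVEC, MSC) treated with POLQ inhibitor combinations; where Cmax unknown, highest tested concentration 10 microM, except SN-38 at 1 microM.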

[1] = second compound 0.0316 µM, first compound 0.0316 µM
[2] = second compound 0.0316 µM, first compound 0.1 µM
[3] = second compound 0.0316 µM, first compound 0.316 µM
[4] = second compound 0.0316 µM, first compound 1 µM
[5] = second compound 0.0316 µM, first compound 3.16 µM
[6] = second compound 0.0316 µM, first compound 10 µM
[7] = second compound 0.1 µM, first compound 0.0316 µM
[8] = second compound 0.1 µM, first compound 0.1 µM
[9] = second compound 0.1 µM, first compound 0.316 µM
[10] = second compound 0.1 µM, first compound 1 µM
[11] = second compound 0.1 µM, first compound 3.16 µM
[12] = second compound 0.1 µM, first compound 10 µM
[13] = second compound 0.316 µM, first compound 0.0316 µM
[14] = second compound 0.316 µM, first compound 0.1 µM
[15] = second compound 0.316 µM, first compound 0.316 µM
[16] = second compound 0.316 µM, first compound 1 µM
[17] = second compound 0.316 µM, first compound 3.16 µM
[18] = second compound 0.316 µM, first compound 10 µM
[19] = second compound 1 µM, first compound 0.0316 µM
[20] = second compound 1 µM, first compound 0.1 µM
[21] = second compound 1 µM, first compound 0.316 µM
[22] = second compound 1 µM, first compound 1 µM
[23] = second compound 1 µM, first compound 3.16 µM
[24] = second compound 1 µM, first compound 10 µM
[25] = second compound 3.16 µM, first compound 0.0316 µM
[26] = second compound 3.16 µM, first compound 0.1 µM
[27] = second compound 3.16 µM, first compound 0.316 µM
[28] = second compound 3.16 µM, first compound 1 µM
[29] = second compound 3.16 µM, first compound 3.16 µM
[30] = second compound 3.16 µM, first compound 10 µM
[31] = second compound 10 µM, first compound 0.0316 µM
[32] = second compound 10 µM, first compound 0.1 µM
[33] = second compound 10 µM, first compound 0.316 µM
[34] = second compound 10 µM, first compound 1 µM
[35] = second compound 10 µM, first compound 3.16 µM
[36] = second compound 10 µM, first compound 10 µM
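Also: spheroids exposed to drugs for one week before measurement.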
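For viability, T/C in this document: percent viability relative to DMSO vehicle control taken as 100%.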

## C#Cc1c(F)ccc2cc(O)cc(-c3ncc4c(N5CC6CCC(C5)N6)nc(OCC56CCCN5CC(F)C6)nc4c3F)c12 (stereo unspecified) + Nc1ccc(C#CCN(C(=O)Cc2ncc(C(F)(F)F)cc2C(F)(F)F)c2ccc(F)cc2)nn1
Second compound 0.0316 µM
  IC50: > 10 µM
Second compound 0.1 µM
  IC50: > 10 µM
Second compound 0.316 µM
  IC50: > 10 µM
Second compound 1 µM
  IC50: > 10 µM
Second compound 3.16 µM
  IC50: > 10 µM
Second compound 10 µM
  IC50: > 10 µM
[1]
  viability, T/C: 106%
[2]
  viability, T/C: 108%
[3]
  viability, T/C: 106%
[4]
  viability, T/C: 112%
[5]
  viability, T/C: 116%
[6]
  viability, T/C: 82.1%
[7]
  viability, T/C: 92.3%
[8]
  viability, T/C: 109%
[9]
  viability, T/C: 110%
[10]
  viability, T/C: 104%
[11]
  viability, T/C: 103%
[12]
  viability, T/C: 90.2%
[13]
  viability, T/C: 107%
[14]
  viability, T/C: 103%
[15]
  viability, T/C: 133%
[16]
  viability, T/C: 104%
[17]
  viability, T/C: 98%
[18]
  viability, T/C: 92.4%
[19]
  viability, T/C: 114%
[20]
  viability, T/C: 102%
[21]
  viability, T/C: 104%
[22]
  viability, T/C: 136%
[23]
  viability, T/C: 103%
[24]
  viability, T/C: 103%
[25]
  viability, T/C: 117%
[26]
  viability, T/C: 118%
[27]
  viability, T/C: 106%
[28]
  viability, T/C: 128%
[29]
  viability, T/C: 99.1%
[30]
  viability, T/C: 86.6%
[31]
  viability, T/C: 103%
[32]
  viability, T/C: 89.5%
[33]
  viability, T/C: 92.6%
[34]
  viability, T/C: 128%
[35]
  viability, T/C: 96.9%
[36]
  viability, T/C: 68.6%

## C=CC(=O)N1CCN(c2nc(=O)n(-c3c(C)ccnc3C(C)C)c3nc(-c4c(O)cccc4F)c(F)cc23)C(C)C1 (stereo unspecified) + Nc1ccc(C#CCN(C(=O)Cc2ncc(C(F)(F)F)cc2C(F)(F)F)c2ccc(F)cc2)nn1
Second compound 0.0316 µM
  IC50: > 10 µM
Second compound 0.1 µM
  IC50: > 10 µM
Second compound 0.316 µM
  IC50: > 10 µM
Second compound 1 µM
  IC50: > 10 µM
Second compound 3.16 µM
  IC50: > 10 µM
Second compound 10 µM
  IC50: > 10 µM
[1]
  viability, T/C: 77.4%
[2]
  viability, T/C: 83.6%
[3]
  viability, T/C: 80%
[4]
  viability, T/C: 84.9%
[5]
  viability, T/C: 88.7%
[6]
  viability, T/C: 70.2%
[7]
  viability, T/C: 86.9%
[8]
  viability, T/C: 75.2%
[9]
  viability, T/C: 80.7%
[10]
  viability, T/C: 86.2%
[11]
  viability, T/C: 81.7%
[12]
  viability, T/C: 76.9%
[13]
  viability, T/C: 93.5%
[14]
  viability, T/C: 76.9%
[15]
  viability, T/C: 66.2%
[16]
  viability, T/C: 82.2%
[17]
  viability, T/C: 77.9%
[18]
  viability, T/C: 78.4%
[19]
  viability, T/C: 96.2%
[20]
  viability, T/C: 78.1%
[21]
  viability, T/C: 81.6%
[22]
  viability, T/C: 79.1%
[23]
  viability, T/C: 92.7%
[24]
  viability, T/C: 79%
[25]
  viability, T/C: 83.1%
[26]
  viability, T/C: 80%
[27]
  viability, T/C: 74.6%
[28]
  viability, T/C: 82.2%
[29]
  viability, T/C: 85.9%
[30]
  viability, T/C: 64.5%
[31]
  viability, T/C: 90.3%
[32]
  viability, T/C: 80.8%
[33]
  viability, T/C: 73.5%
[34]
  viability, T/C: 79.1%
[35]
  viability, T/C: 79.7%
[36]
  viability, T/C: 77.4%

## CC(C)n1c(=O)n(C)c2cnc3cc(F)c(-c4ccc(OCCCN5CCCCC5)nc4)cc3c21 + Nc1ccc(C#CCN(C(=O)Cc2ncc(C(F)(F)F)cc2C(F)(F)F)c2ccc(F)cc2)nn1
Second compound 0.0316 µM
  IC50: > 10 µM
Second compound 0.1 µM
  IC50: > 10 µM
Second compound 0.316 µM
  IC50: > 10 µM
Second compound 1 µM
  IC50: > 10 µM
Second compound 3.16 µM
  IC50: > 10 µM
Second compound 10 µM
  IC50: > 10 µM
[1]
  viability, T/C: 112%
[2]
  viability, T/C: 105%
[3]
  viability, T/C: 105%
[4]
  viability, T/C: 111%
[5]
  viability, T/C: 109%
[6]
  viability, T/C: 72.9%
[7]
  viability, T/C: 105%
[8]
  viability, T/C: 102%
[9]
  viability, T/C: 121%
[10]
  viability, T/C: 105%
[11]
  viability, T/C: 102%
[12]
  viability, T/C: 78.7%
[13]
  viability, T/C: 126%
[14]
  viability, T/C: 123%
[15]
  viability, T/C: 89.7%
[16]
  viability, T/C: 108%
[17]
  viability, T/C: 97.3%
[18]
  viability, T/C: 84.5%
[19]
  viability, T/C: 105%
[20]
  viability, T/C: 102%
[21]
  viability, T/C: 91.8%
[22]
  viability, T/C: 105%
[23]
  viability, T/C: 93.1%
[24]
  viability, T/C: 79.7%
[25]
  viability, T/C: 115%
[26]
  viability, T/C: 109%
[27]
  viability, T/C: 113%
[28]
  viability, T/C: 116%
[29]
  viability, T/C: 96.7%
[30]
  viability, T/C: 78.3%
[31]
  viability, T/C: 93.5%
[32]
  viability, T/C: 81.5%
[33]
  viability, T/C: 98.1%
[34]
  viability, T/C: 86.6%
[35]
  viability, T/C: 79.5%
[36]
  viability, T/C: 71.5%
